According to BindingDB's records for doi:10.7270/Q2C53J9J (University of Pittsburgh, 2010):

Each molecule was assayed against T1, Glucose-6-phosphate 1-dehydrogenase (Leuconostoc mesenteroides, UniProt P11411) (assay: Leuconostoc G6PDH inhibition potency, SAR follow-up, counter-screen for TbHK1 inhibitor project, biochemical, analogue series, IC50 (AID 2579)).
T1 sequence (P11411 whole entry): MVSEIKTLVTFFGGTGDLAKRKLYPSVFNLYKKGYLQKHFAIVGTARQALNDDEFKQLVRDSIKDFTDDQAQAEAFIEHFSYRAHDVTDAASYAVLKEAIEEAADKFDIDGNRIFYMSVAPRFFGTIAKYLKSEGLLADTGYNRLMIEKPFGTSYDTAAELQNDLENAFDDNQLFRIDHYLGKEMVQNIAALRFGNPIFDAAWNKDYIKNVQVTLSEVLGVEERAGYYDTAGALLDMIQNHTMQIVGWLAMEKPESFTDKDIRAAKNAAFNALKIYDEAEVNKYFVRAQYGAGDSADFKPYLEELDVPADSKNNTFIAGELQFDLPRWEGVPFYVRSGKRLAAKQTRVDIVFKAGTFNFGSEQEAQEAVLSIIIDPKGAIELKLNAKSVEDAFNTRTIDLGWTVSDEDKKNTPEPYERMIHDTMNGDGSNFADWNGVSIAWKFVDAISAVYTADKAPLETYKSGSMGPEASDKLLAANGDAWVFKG
In the case of `COc1cccc(CC(=O)Nc2cc(Cl)ccc2C(=O)O)c1` [4-chloro-2-[[2-(3-methoxyphenyl)-1-oxoethyl]amino]benzoic acid], the IC50 is reported as greater than 25 µM. With `COc1cccc(NC(=O)Cn2sc3ccccc3c2=O)c1` [KUC104220N] the IC50 was greater than 25 µM. Molecule `CCc1ccc(C(=O)Nc2cc(Cl)ccc2C(=O)OC)cc1` [4-chloro-2-[[(4-ethylphenyl)-oxomethyl]amino]benzoic acid methyl ester] has an IC50 greater than 25 µM. For `O=C(Nc1cc(Cl)ccc1C(=O)O)c1ccc(Cc2ccccc2)cc1` [4-chloranyl-2-[[4-(phenylmethyl)phenyl]carbonylamino]benzoic acid], the IC50 was greater than 25 µM. Work on `COc1ccc(C(=O)Nc2cnccc2C(=O)O)cc1` [3-[(4-methoxybenzoyl)amino]pyridine-4-carboxylic acid] yielded an IC50 greater than 25 µM. With `O=C(Nc1cc(Cl)ccc1C(=O)O)c1ccc2ccccc2c1` [4-chloro-2-[[2-naphthalenyl(oxo)methyl]amino]benzoic acid] the IC50 was greater than 25 µM. `Cc1ccc(C(=O)Nc2cc(Cl)ccc2C(=O)O)cc1C` [KUC106495N] showed an IC50 greater than 25 µM. With `COc1ccc(C(=O)Nc2cc(Cl)ccc2C(=O)O)cc1` [4-chloranyl-2-[(4-methoxyphenyl)carbonylamino]benzoic acid] the IC50 was greater than 25 µM. Work on `O=c1s[nH]c2ccccc12` [KUC103850N] yielded an IC50 greater than 25 µM. For `O=C(Cn1sc2ccccc2c1=O)Nc1ccc(Cl)cc1` [N-(4-chlorophenyl)-2-(3-oxidanylidene-1,2-benzothiazol-2-yl)ethanamide], the IC50 was greater than 25 µM. `O=C(Nc1cc(Cl)ccc1C(=O)O)c1ccc2c(c1)CCC2` [KUC106492N] was tested, and the IC50 was greater than 25 µM. Molecule `COc1ccc(C(=O)Nc2cc(F)cc(F)c2O)cc1` [N-(3,5-difluoro-2-hydroxyphenyl)-4-methoxybenzamide] has an IC50 greater than 25 µM. `COC(=O)c1ccc(Cl)cc1NC(=O)c1ccc(Cl)cc1` gave an IC50 greater than 25 µM. In the case of `COc1ccc(C(=O)Nc2cc(Cl)ccc2C(=O)O)cn1` [4-chloranyl-2-[(6-methoxypyridin-3-yl)carbonylamino]benzoic acid], the IC50 is reported as greater than 25 µM. `COc1ccc2c(=O)n(-c3ccccc3)sc2c1` [KUC105410N] showed an IC50 greater than 25 µM. For `Cc1ccccc1N1Cc2ccccc2C1=O` [KUC103869N], the IC50 was greater than 25 µM. `O=C(O)c1ccc(Cl)cc1NC(=O)N1CCOCC1` [KUC105933N] showed an IC50 greater than 25 µM. `CCOC(=O)c1ccncc1NC(=O)c1ccc(OC)cc1` [3-[[(4-methoxyphenyl)-oxomethyl]amino]-4-pyridinecarboxylic acid ethyl ester] was tested, and the IC50 was greater than 25 µM. Molecule `O=c1c2cccnc2sn1-c1ccccc1` [2-(Phenyl)-isothiazolo[5,4-b]pyridin-3(2H)-one] has an IC50 greater than 25 µM. `CC(C)(C)c1ccc(C(=O)Nc2cc(Cl)ccc2C(=O)O)cc1` [KSC-18-037] showed an IC50 greater than 25 µM. Molecule `O=c1c2ccccc2sn1-c1ccc(Cl)cc1Cl` [KUC103882N] has an IC50 greater than 25 µM. Work on `COc1ccc(CC(=O)Nc2cc(Cl)ccc2C(=O)O)cc1` [KUC105993N] yielded an IC50 greater than 25 µM. `CCOC(=O)Cn1sc2ccccc2c1=O` [KUC104555N] was tested, and the IC50 was greater than 25 µM. `O=c1c2ccccc2sn1-c1ccccc1Cl` gave an IC50 greater than 25 µM. With `O=C(Cn1sc2ccccc2c1=O)Nc1ccccc1Br` the IC50 was greater than 25 µM. Work on `COc1ccccc1C(=O)Nc1cc(Cl)ccc1C(=O)O` yielded an IC50 greater than 25 µM. `N#Cc1ccc(Oc2ccc3c(c2)B(O)OC3)cc1` [KSC-6-289] was tested, and the IC50 was greater than 25 µM. Molecule `O=C(Nc1cc(Cl)ccc1C(=O)O)c1ccc(C2CC2)cc1` [KUC106496N] has an IC50 greater than 25 µM. `COc1ccc(C(=O)Nc2cc(Cl)ccc2C#N)cc1` [KSC-6-267] showed an IC50 greater than 25 µM. In the case of `O=C(Nc1cc(Cl)ccc1C(=O)O)c1ccc(C(F)(F)F)cc1` [4-chloranyl-2-[[4-(trifluoromethyl)phenyl]carbonylamino]benzoic acid], the IC50 is reported as greater than 25 µM. Work on `CN(C)c1cccc(NC(=O)Cn2sc3ccccc3c2=O)c1` [KSC-09-148-9] yielded an IC50 greater than 25 µM. `Cc1cc(=O)n(-c2ccccc2)s1` was tested, and the IC50 was greater than 25 µM. Work on `CC(C)c1ccc(C(=O)Nc2cc(Cl)ccc2C(=O)O)cc1` [4-chloro-2-[[oxo-(4-propan-2-ylphenyl)methyl]amino]benzoic acid] yielded an IC50 greater than 25 µM.
